Test results published in US20090281047A1, “Compositions And Methods For Immunotherapy” (priority 2008, published 2009).

Tests used:
Lyme Disease = assay: Treatment of Lyme Disease (Example XII); assay type: in vivo, human; details: five individuals; 200 mg in 1 liter alkaline water pH 11 twice daily for three months
Experimental: (§1) Five individuals positive for Lyme Disease were administered a solution comprising 1 liter of Alkaline water prepared as described in Example XI and diluted with non-chlorinated drinking water to a pH of 11 mixed with 200 mg of columbianitin extracted from Lomatium Disectum twice daily for three months.

Epstein Barr virus = assay: Treatment of Epstein Barr (Example XIII); assay type: in vivo, human; details: thirty five individuals; 200 mg in 1 liter alkaline water pH 11 twice daily for three months
Experimental: as §1, with “Thirty five” for “Five”, “with Epstein Barr virus” for “positive for Lyme Disease”, “comprising,” for “comprising”, “Disectum,” for “Disectum”

candadiasis = assay: Treatment of candadiasis (Example XIV); assay type: in vivo, human; details: 25 individuals; 200 mg in 1 liter alkaline water pH 11 twice daily for three months
Experimental: (§2) 25 individuals with candadiasis were administered a solution comprising, 1 liter of Alkaline water prepared as described in Example XI and diluted with non-chlorinated drinking water to a pH of 11 mixed with 200 mg of columbianitin extracted from Lomatium Disectum, twice daily for three months.

[1] = tested on: Methicillin Resistant Staphylococcus aureus (MRSA); assay: Treatment of MRSA (Example XV); assay type: in vivo, human; details: three individuals; 200 mg in 1 liter alkaline water pH 11 twice daily for three months
Experimental: as §2, with “Three” for “25”, “suffering from MRSA” for “with candadiasis”

breast cancer = assay: Treatment of breast cancer patients (Example IX); assay type: in vivo, human
From the text: Forty-three of the patients in the study of Example VIII suffered from breast cancer. These forty-three were divided into four groups. One group of 7 was given the glycome solution of Example II; a group of five was given the glycome solution of Example II in combination with chemotherapy; a group of thirteen was given the glycome solution of Example II in combination with chemotherapy and Poly-MVA® (AMARC Enterprises, Inc., Spring Valley, Calif.) (blend of Palladium and alpha-lipoic Acid, Vitamins B1, B2 and B12, Formylmethionine, Acetyl Cystiene, and trace amounts of Molybdinum, Rhodium, and Ruthenium); and the remaining eighteen were given a combination of the glycome solution of Example II and Poly-MVA® (AMARC Enterprises, Inc., Spring Valley, Calif.) without chemotherapy. Patients receiving the glycome solution were given a solution containing three grams of the powder isolated in Example I a day intravenously for five days then six capsules containing a total of 3 g/day of para-hydroxyl-benzaldehyde-O-B-D-allopyranoside formulated according to Example IV and two capsules containing the formulation of Example V orally for two days, repeating for four weeks. They were then given six capsules containing a total of 3 g/day of para-hydroxyl-benzaldehyde-O-B-D-allopyranoside formulated according to Example IV and two capsules containing the formulation of Example V orally per day until they entered remission.

[2] = tested on: varying malignancies including neuroendocrine cancer, nasal adenocarcinoma, brain stem tumor, thymoma, and histiocytoma; assay: Treatment of dogs with varying malignancies (Example X); assay type: in vivo, dog; details: eight dogs; IV five days a week for three weeks, then 1 to 2 grams methacrylate coated para-hydroxyl-benzaldehyde-O-B-D-allopyranoside in food; some also acupuncture/alkaline water
Experimental: Eight dogs weighing between 60 and 80 pounds with varying malignancies including neuroendocrine cancer, nasal adenocarcinoma, brain stem tumor, thymoma, and histiocytoma were treated with 6 cc of the DMSO solution of Example II diluted in 200 cc saline administered intravenously five days a week for three weeks. The dogs were then given 1 to 2 grams of methacrylate coated para-hydroxyl-benzaldehyde-O-B-D-allopyranoside in their food seven days a week until they entered remission. Six of the dogs also received acupuncture and one received acupuncture and alkaline water.

Structure (SMILES) | Lyme disease test at the end of three months (Lyme Disease) | Epstein Barr virus test at the end of three months (Epstein Barr virus) | skin infections at the end of three months (candadiasis) | vaginal infections at the end of three months (candadiasis) | clinical outcome at the end of three months [1] | breast cancer patients survived for at least two years, overall (breast cancer; all forty-three breast cancer patients, all four treatment groups) | breast cancer patients survived (breast cancer; group of eighteen, combination with Poly-MVA without chemotherapy) | breast cancer patients survived (breast cancer; group of five, combination with chemotherapy) | tumor response [2]
CC(C)(O)[C@@H]1Cc2c(ccc3ccc(=O)oc23)O1 [columbianitin] | all five individuals tested negative | all thirty-five individuals tested negative | resolved | remained the same | all three individuals improved considerably |  |  |  | 
O=Cc1ccc(O[C@@H]2O[C@H](CO)[C@@H](O)[C@@H](O)[C@H]2O)cc1 [para-hydroxyl-benzaldehyde-O-B-D-allopyranoside] |  |  |  |  |  | 79% | seventy-eight | 100% | significant reduction or elimination of the tumor
